Here are results for one substance from patent US12441803B2, “Engineered CD25 polypeptides and uses thereof” (iBio, Inc., priority 2018, dated 2025).

The experiment has as its system alanine mutant versions of CD25. Briefly: Alanine mutagenesis functional epitope mapping. Particulars: binding responses to alanine mutant versions of CD25.

Experimental: Alanine mutagenesis was selected as an orthogonal method for binning antibodies because it operates on the functional epitope, rather than the structural epitope defined by competition assays. Various pairs of surface-accessible residues were selected for mutagenesis.
Each of 117 scFv's from the screening campaign were tested against four alanine mutations pairs (FIG. 31).

Take basiliximab: the “Ala-mutant epitope mapping of control antibody” value was “Ala mutant binding responses corroborate crystal structure of the basiliximab epitope”.
